From ChEMBL document CHEMBL5244255, “An insight on medicinal attributes of 1,2,4-triazoles” (Eur J Med Chem, 2020)
In brackets after ≈: the same amount, converted by molar mass.

Columns and labels:
[1] = test system: Mycobacterium tuberculosis; assay: Antimycobacterial activity against multi drug resistant Mycobacterium tuberculosis measured after 8 to 9 days; format: functional; details: time 8-9 day
[2] = test system: Mycobacterium tuberculosis; assay: Antimycobacterial activity against drug resistant Mycobacterium tuberculosis measured after 8 to 9 days; format: functional; details: time 8-9 day

## Clc1ccc(-c2nnc3sc(COc4ccc(Br)cc4)nn23)cc1
[1]
  MIC: 4 mg/L (≈ 9.49 µM)
[2]
  MIC: 0.5 mg/L (≈ 1.19 µM)

## Brc1ccc(OCc2nn3c(-c4ccc(Br)cc4)nnc3s2)cc1
[1]
  MIC: 4 mg/L (≈ 8.58 µM)
[2]
  MIC: 0.5 mg/L (≈ 1.07 µM)

## O=[N+]([O-])c1ccc(C2=Nn3c(nnc3-c3ccc(Br)cc3)CC2)cc1
[2]
  MIC: 0.25 mg/L (≈ 0.628 µM)

## O=[N+]([O-])c1ccc(C2=Nn3c(nnc3-c3ccnc(F)c3)CC2)cc1
[1]
  MIC: 0.25 mg/L (≈ 0.739 µM)
[2]
  MIC: 0.25 mg/L (≈ 0.739 µM)

## O=[N+]([O-])c1ncn(CCCCNS(=O)(=O)c2scc(Cl)c2Cl)n1
[1]
  MIC: 0.25 mg/L (≈ 0.625 µM)
